The values that follow come from US7135466B2 (Kirin Beer Kabushiki Kaisha, priority 1999, dated 2006).

Bounds are passed on as bounds.

One experiment concerns the target T1, c-kit (Homo sapiens, UniProt P10721).
T1 construct: MO7e (human megakaryocytic leukemia cell line) which had been arrested for 20 hr; endogenous in cells; host or cells: MO7e human megakaryocytic leukemia cell line
In words: Inhibitory activity against c-kit autophosphorylation (MO7e cells, h-SCF). The format is cell-based. As to conditions: MO7e cells, h-SCF 50 ng/ml; read-out: c-kit IC50. The gist of the method:
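Ligand-induced c-kit tyrosine phosphorylation is measured in MO7e cells that were quiesced 20 hr and preincubated with compound for 1 hr prior to a 5 min pulse of 50 ng/ml human SCF. Phospho-c-kit is detected by anti-phosphotyrosine capture ELISA, A450.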

The next experiment addresses T2, PDGF-Ra (Homo sapiens, UniProt P16234).
T2 construct: host or cells: G-292 human osteosarcoma cells
Description: Inhibitory activity against PDGF-Ra phosphorylation by PDGF-AA stimulation using G292. The following applies: for IC50: Pharmacological Test Example 1, > means inhibition at indicated concentration not more than 50%, < and << not less than 50%, read-out: PDGF (E) IC50; for inhibition at 0.1 µM: G292, figure in parentheses in >100( ), at 100 nM, read-out: PDGF (E) inhibition (%) at 100 nM. The format is cell-based. The gist of the method:
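In G-292 osteosarcoma cells kept overnight in 0.1% FBS, compound exposure (1 hr, 37 °C) preceded PDGF-AA stimulation at 50 ng/ml for 5 min; receptor phosphotyrosine was then detected by PY-20 capture ELISA.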

Usually IC50 stands for the midpoint of a concentration-inhibition curve. By inhibition is commonly meant the change of the read-out against control, counted positive when it falls.

T2 sequence (P16234 24-1089): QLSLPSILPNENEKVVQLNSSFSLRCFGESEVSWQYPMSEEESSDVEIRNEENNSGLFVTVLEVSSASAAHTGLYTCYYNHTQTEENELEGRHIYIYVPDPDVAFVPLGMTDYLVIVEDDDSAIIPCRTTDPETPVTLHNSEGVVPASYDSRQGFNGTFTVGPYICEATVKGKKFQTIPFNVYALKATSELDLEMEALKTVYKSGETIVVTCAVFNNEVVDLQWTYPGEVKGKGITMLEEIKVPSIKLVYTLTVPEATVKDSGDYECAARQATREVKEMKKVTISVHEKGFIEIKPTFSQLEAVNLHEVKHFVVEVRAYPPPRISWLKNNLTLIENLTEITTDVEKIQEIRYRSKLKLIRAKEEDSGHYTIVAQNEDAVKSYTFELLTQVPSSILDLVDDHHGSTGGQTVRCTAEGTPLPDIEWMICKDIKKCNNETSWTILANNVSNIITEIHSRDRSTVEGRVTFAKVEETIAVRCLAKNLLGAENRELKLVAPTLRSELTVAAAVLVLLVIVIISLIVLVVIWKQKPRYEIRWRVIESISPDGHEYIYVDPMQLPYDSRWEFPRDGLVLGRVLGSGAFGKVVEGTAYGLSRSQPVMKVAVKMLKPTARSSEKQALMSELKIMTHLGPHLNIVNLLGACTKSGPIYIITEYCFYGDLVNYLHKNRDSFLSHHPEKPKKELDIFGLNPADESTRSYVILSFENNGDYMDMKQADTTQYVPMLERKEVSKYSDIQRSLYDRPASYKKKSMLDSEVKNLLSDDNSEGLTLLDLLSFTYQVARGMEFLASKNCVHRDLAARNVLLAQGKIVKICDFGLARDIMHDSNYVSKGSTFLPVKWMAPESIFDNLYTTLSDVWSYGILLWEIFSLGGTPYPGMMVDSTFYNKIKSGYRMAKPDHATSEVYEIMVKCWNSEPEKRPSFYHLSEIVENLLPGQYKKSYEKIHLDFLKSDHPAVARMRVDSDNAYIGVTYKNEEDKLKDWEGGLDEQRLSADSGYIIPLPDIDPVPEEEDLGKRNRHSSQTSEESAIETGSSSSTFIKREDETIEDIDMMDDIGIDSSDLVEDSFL
T1 sequence (P10721 26-976): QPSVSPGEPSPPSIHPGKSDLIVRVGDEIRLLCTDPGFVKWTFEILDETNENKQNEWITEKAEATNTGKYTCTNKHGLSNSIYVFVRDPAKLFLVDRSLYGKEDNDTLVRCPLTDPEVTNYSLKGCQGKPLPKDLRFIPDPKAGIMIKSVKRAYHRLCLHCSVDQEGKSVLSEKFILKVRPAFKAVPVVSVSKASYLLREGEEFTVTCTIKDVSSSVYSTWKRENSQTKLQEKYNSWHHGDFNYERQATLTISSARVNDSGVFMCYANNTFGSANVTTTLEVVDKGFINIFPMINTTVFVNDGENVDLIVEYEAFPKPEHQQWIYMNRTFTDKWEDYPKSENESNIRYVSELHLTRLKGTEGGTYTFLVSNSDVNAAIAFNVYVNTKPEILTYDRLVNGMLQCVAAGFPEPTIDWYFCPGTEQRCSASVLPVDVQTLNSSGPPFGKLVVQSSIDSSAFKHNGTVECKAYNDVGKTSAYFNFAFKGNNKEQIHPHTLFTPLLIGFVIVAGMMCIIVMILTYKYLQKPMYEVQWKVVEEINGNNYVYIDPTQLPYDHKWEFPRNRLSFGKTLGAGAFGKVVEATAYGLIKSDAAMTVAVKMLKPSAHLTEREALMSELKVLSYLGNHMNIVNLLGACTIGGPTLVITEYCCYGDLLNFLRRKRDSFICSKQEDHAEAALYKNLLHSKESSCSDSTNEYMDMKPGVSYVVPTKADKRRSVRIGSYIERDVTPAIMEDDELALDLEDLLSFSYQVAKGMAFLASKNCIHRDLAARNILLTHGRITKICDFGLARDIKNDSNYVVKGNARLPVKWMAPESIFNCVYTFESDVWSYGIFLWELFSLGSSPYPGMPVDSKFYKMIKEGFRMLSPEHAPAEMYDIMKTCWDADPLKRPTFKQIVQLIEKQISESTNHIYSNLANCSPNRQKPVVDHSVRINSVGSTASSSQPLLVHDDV

Regarding `COc1cccc(OC(=O)Nc2ccc(Oc3ccnc4cc(OC)c(OC)cc34)cc2)c1` [Example 214, 3-Methoxyphenyl N-{4-[(6,7-dimethoxy-4-quinolyl)oxy]phenyl}carbamate], the figures for the IC50 at c-kit and at PDGF-Ra were 47 nM and over 30 nM, respectively. The “PDGF (E) inhibition (%) in >30( )” value at PDGF-Ra (figure in parentheses in >30( ), concentration not defined, presumably 30 nM) turned out to be 6%.

For `CCCOC(=O)Nc1ccc(Oc2ccnc3cc(OC)c(OC)cc23)c(C)c1C` [Example 215, Propyl N-{4-[(6,7-Dimethoxy-4-quinolin)oxy]-2,3-dimethylphenyl}carbamate], the IC50 on c-kit is under 30 nM; on PDGF-Ra, 8 nM.

`COc1cc2nccc(Oc3ccc(NC(=O)OC4CCCCC4)cc3)c2cc1OC` [Example 230, Cyclohexyl N-{4-[(6,7-dimethoxy-4-quinolyl)oxy]phenyl}carbamate]: the IC50 on c-kit stood at 111 nM; at PDGF-Ra, 8 nM.

On to `COc1cc2nccc(Oc3ccc(NC(=O)OCc4ccccc4)cc3)c2cc1OC` [Example 231, Benzyl N-{4-[(6,7-dimethoxy-4-quinolyl)oxy]phenyl}carbamate], for which the IC50 at c-kit amounted to 86 nM; on PDGF-Ra, 1 nM.

For `COc1cc2nccc(Oc3ccc(NC(=O)OCc4ccccc4C)c(C)c3C)c2cc1OC` [Example 232, 2-Methylbenzyl N-{4-[(6,7-dimethoxy-4-quinolyl)oxy]-2,3-dimethylphenyl}carbamate], the values for the IC50 at c-kit and at PDGF-Ra were 42 nM and 11 nM, respectively.

For the molecule `COc1cc2nccc(Oc3ccc(NC(=O)OCc4cccc(C)c4)c(C)c3C)c2cc1OC` [Example 233, 3-Methylbenzyl N-{4-[(6,7-dimethoxy-4-quinolyl)oxy]-2,3-dimethylphenyl}carbamate], the IC50 at c-kit came to 52 nM; on PDGF-Ra it was 8 nM.

Take `COc1cc2nccc(Oc3ccc(NC(=O)OCc4ccc(C)cc4)c(C)c3C)c2cc1OC` [Example 234, 4-Methylbenzyl N-{4-[(6,7-dimethoxy-4-quinolyl)oxy]-2,3-dimethylphenyl}carbamate]: the IC50 on c-kit stood at 46 nM; at PDGF-Ra, 10 nM.

`COc1cc2nccc(Oc3ccc(NC(=O)OCc4ccccc4Cl)c(C)c3C)c2cc1OC` [Example 235, 2-Chlorobenzyl N-{4-[(6,7-dimethoxy-4-quinolyl)oxy]-2,3-dimethylphenyl}carbamate]: the results for the IC50 on c-kit and at PDGF-Ra were 57 nM and under 3 nM, respectively.

On to `COc1cc2nccc(Oc3ccc(NC(=O)OCc4cccc(Cl)c4)c(C)c3C)c2cc1OC` [Example 236, 3-Chlorobenzyl N-{4-[(6,7-dimethoxy-4-quinolyl)oxy]-2,3-dimethylphenyl}carbamate], for which the IC50 at c-kit is 47 nM; on PDGF-Ra, 4 nM.

As for `COc1cc2nccc(Oc3ccc(NC(=O)OCc4ccc(Cl)cc4)c(C)c3C)c2cc1OC` [Example 237, 4-Chlorobenzyl N-{4-[(6,7-dimethoxy-4-quinolyl)oxy]-2,3-dimethylphenyl}carbamate], the IC50 amounted to 42 nM at c-kit and 6 nM on PDGF-Ra.

In the case of `COc1cccc(COC(=O)Nc2ccc(Oc3ccnc4cc(OC)c(OC)cc34)c(C)c2C)c1` [Example 238, 3-Methoxybenzyl N-{4-[(6,7-dimethoxy-4-quinolyl)oxy]-2,3-dimethylphenyl}carbamate], the IC50 on c-kit was found to be 36 nM; on PDGF-Ra it was 10 nM.

As to `COc1ccccc1COC(=O)Nc1cc(C)c(Oc2ccnc3cc(OC)c(OC)cc23)cc1C` [Example 239, 2-Methoxybenzyl N-{4-[(6,7-dimethoxy-4-quinolyl)oxy]-2,5-dimethylphenyl}carbamate], the IC50 was 183 nM on c-kit and 9 nM at PDGF-Ra.

For `COc1cccc(COC(=O)Nc2cc(C)c(Oc3ccnc4cc(OC)c(OC)cc34)cc2C)c1` [Example 240, 3-Methoxybenzyl N-{4-[(6,7-dimethoxy-4-quinolyl)oxy]-2,5-dimethylphenyl}carbamate], the IC50 came out at 248 nM on c-kit and 17 nM at PDGF-Ra.

`COc1cc2nccc(Oc3cc(C)c(NC(=O)OCc4ccccc4Cl)cc3C)c2cc1OC` [Example 241, 2-Chlorobenzyl N-{4-[(6,7-dimethoxy-4-quinolyl)oxy]-2,5-dimethylphenyl}carbamate]: the IC50 was 232 nM at c-kit and 12 nM on PDGF-Ra.

On to `COc1cc2nccc(Oc3cc(C)c(NC(=O)OCc4cccc(Cl)c4)cc3C)c2cc1OC` [Example 242, 3-Chlorobenzyl N-{4-[(6,7-dimethoxy-4-quinolyl)oxy]-2,5-dimethylphenyl}carbamate], for which the results for the IC50 on c-kit and at PDGF-Ra were 192 nM and 21 nM, respectively.

For `COc1cc2nccc(Oc3cc(C)c(NC(=O)OCc4ccc(Cl)cc4)cc3C)c2cc1OC` [Example 243, 4-Chlorobenzyl N-{4-[(6,7-dimethoxy-4-quinolyl)oxy]-2,5-dimethylphenyl}carbamate], the IC50 at c-kit was found to be 190 nM; at PDGF-Ra, 20 nM.

On to `CCCOC(=O)Nc1cc(C)c(Oc2ccnc3cc(OC)c(OC)cc23)cc1C` [Example 244, Propyl N-{4-[(6,7-dimethoxy-4-quinolyl)oxy]-2,5-dimethylphenyl}carbamate], for which the IC50 on c-kit turned out to be 69 nM; on PDGF-Ra, 27 nM.

For the molecule `COc1cc2nccc(Oc3cc(C)c(NC(=O)OCc4ccccc4C)cc3C)c2cc1OC` [Example 245, 2-Methylbenzyl N-{4-[(6,7-dimethoxy-4-quinolyl)oxy]-2,5-dimethylphenyl}carbamate], the IC50 was 408 nM on c-kit and 16 nM on PDGF-Ra.

In the case of `COc1cc2nccc(Oc3cc(C)c(NC(=O)OCc4ccc5ccccc5c4)cc3C)c2cc1OC` [Example 246, 2-Naphthylmethyl N-{4-[(6,7-dimethoxy-4-quinolyl)oxy]-2,5-dimethylphenyl}carbamate], the IC50 on c-kit is 243 nM; on PDGF-Ra it was 58 nM.

On to `CCCOC(=O)Nc1ccc(Oc2ccnc3cc(OC)c(OC)cc23)cc1` [Example 247, Propyl N-{4-[(6,7-dimethoxy-4-quinolyl)oxy]phenyl}carbamate], for which the IC50 at c-kit was determined as 40 nM; on PDGF-Ra it was 3 nM.

Take `COc1ccccc1COC(=O)Nc1ccc(Oc2ccnc3cc(OC)c(OC)cc23)cc1` [Example 248, 2-Methoxybenzyl N-{4-[(6,7-dimethoxy-4-quinolyl)oxy]phenyl}carbamate]: the concentration for half-maximal inhibition (IC50) was 147 nM at c-kit and 11 nM on PDGF-Ra.

Turning to `COc1ccc(COC(=O)Nc2ccc(Oc3ccnc4cc(OC)c(OC)cc34)cc2)cc1` [Example 249, 4-Methoxybenzyl N-{4-[(6,7-dimethoxy-4-quinolyl)oxy]phenyl}carbamate], the IC50 on c-kit was found to be 57 nM; at PDGF-Ra it was 4 nM.

For the molecule `COc1cc2nccc(Oc3ccc(NC(=O)OCc4ccccc4C)cc3)c2cc1OC` [Example 250, 2-Methylbenzyl N-{4-[(6,7-dimethoxy-4-quinolyl)oxy]phenyl}carbamate], the results for the IC50 at c-kit and on PDGF-Ra were 184 nM and 4 nM, respectively.

Take `COc1cc2nccc(Oc3ccc(NC(=O)OCc4cccc(C)c4)cc3)c2cc1OC` [Example 251, 3-Methylbenzyl N-{4-[(6,7-dimethoxy-4-quinolyl)oxy]phenyl}carbamate]: the figures for the IC50 on c-kit and on PDGF-Ra were 185 nM and 6 nM, respectively.

Turning to `COc1cc2nccc(Oc3ccc(NC(=O)OCc4ccc(C)cc4)cc3)c2cc1OC` [Example 252, 4-Methylbenzyl N-{4-[(6,7-dimethoxy-4-quinolyl)oxy]phenyl}carbamate], the IC50 came out at 111 nM on c-kit and 6 nM on PDGF-Ra.

With `COc1cc2nccc(Oc3cc(C)c(NC(=O)OCc4ccccc4C)cc3C)c2cc1OC` [Example 253, 2-Methylbenzyl N-{4-[(6,7-dimethoxy-4-quinolyl)oxy]-2,5-dimethylphenyl}carbamate], the IC50 is 514 nM at c-kit and 17 nM at PDGF-Ra.

Take `COc1cc2nccc(Oc3cc(C)c(NC(=O)OCc4cccc(C)c4)cc3C)c2cc1OC` [Example 254, 3-Methylbenzyl N-{4-[(6,7-dimethoxy-4-quinolyl)oxy]-2,5-dimethylphenyl}carbamate]: the IC50 at c-kit was 396 nM. Moreover, on PDGF-Ra, the inhibition at 0.1 µM came to 27% and the IC50 is over 100 nM.

In the case of `COc1cc2nccc(Oc3cc(C)c(NC(=O)OCc4ccc(C)cc4)cc3C)c2cc1OC` [Example 255, 4-Methylbenzyl N-{4-[(6,7-dimethoxy-4-quinolyl)oxy]-2,5-dimethylphenyl}carbamate], the IC50 on c-kit is 309 nM. On PDGF-Ra, the inhibition at 0.1 µM was found to be 36% and the IC50 was over 100 nM.

`CCCCCCOC(=O)Nc1ccc(Oc2ccnc3cc(OC)c(OC)cc23)cc1` [Example 256, Hexyl N-{4-[(6,7-dimethoxy-4-quinolyl)oxy]phenyl}carbamate]: the results for the IC50 on c-kit and at PDGF-Ra were 15 nM and under 3 nM, respectively.

For the molecule `CCCCc1ccc(OC(=O)Nc2ccc(Oc3ccnc4cc(OC)c(OC)cc34)cc2)cc1` [Example 257, 4-Butylphenyl N-{4-[(6,7-dimethoxy-4-quinolyl)oxy]phenyl}carbamate], the IC50 on c-kit worked out at 22 nM; on PDGF-Ra, 6 nM.

Consider `CCCC(CC)OC(=O)Nc1ccc(Oc2ccnc3cc(OC)c(OC)cc23)cc1` (stereo not shown) [Example 258, 1-Ethylbutyl N-{4-[(6,7-dimethoxy-4-quinolyl)oxy]phenyl}carbamate], for which the IC50 is 178 nM on c-kit and 3 nM on PDGF-Ra.

With `COc1cc2nccc(Oc3ccc(NC(=O)Oc4ccc(C(C)(C)C)cc4)cc3)c2cc1OC` [Example 259, 4-(Tert-butyl)phenyl N-{4-[(6,7-dimethoxy-4-quinolyl)oxy]phenyl}carbamate], the IC50 was found to be 184 nM on c-kit and 34 nM on PDGF-Ra.
